This is an account of results in patent publication US11192867B2, “Microbiocidal oxadiazole derivatives” (SYNGENTA PARTICIPATIONS AG, priority 2016, dated 2021).

For one experiment, the system named is Phakopsora pachyrhizi. In words: Fungicidal activity against Phakopsora pachyrhizi / soybean / leaf disc preventative (Asian soybean rust). It is filed as in vivo. The note with it: foliar, 200 ppm in the applied formulation, soybean leaf disks, vs untreated control, read-out: disease control. As for the experimental part:
Leaf disks or leaf segments of various plant species are cut from plants grown in a greenhouse. The cut leaf disks or segments are placed in multiwell plates (24-well format) onto water agar. The leaf disks are sprayed with a test solution before (preventative) or after (curative) inoculation. Compounds to be tested are prepared as DMSO solutions (max. 10 mg/ml) which are diluted to the appropriate concentration with 0.025% Tween20 just before spraying. The inoculated leaf disks or segments are incubated under defined conditions (temperature, relative humidity, light, etc.) according to the respective test system. A single evaluation of disease level is carried out 3 to 14 days after inoculation, depending on the pathosystem. Percent disease control relative to the untreated check leaf disks or segments is then calculated. Soybean leaf disks are placed on water agar in multiwell plates (24-well format) and sprayed with the formulated test compound diluted in water. One day after application leaf discs are inoculated by spraying a spore suspension on the lower leaf surface. After an incubation period in a climate cabinet of 24-36 hours in darkness at 20° C. and 75% rh leaf disc are kept at 20° C. with 12 hours light/12 hours and 75% rh. The activity of a compound is assessed as percent disease control compared to untreated when an appropriate level of disease damage appears in untreated check leaf disks (12 to 14 days after application). The following compounds at 200 ppm in the applied formulation give at least 80% disease control in this test when compared to untreated control leaf disks under the same conditions, which show extensive disease development.

Experiment [1] has as its system Glomerella lagenarium (Colletotrichum lagenarium). The experiment in a line: Fungicidal activity against Glomerella lagenarium (Colletotrichum lagenarium) liquid culture / cucumber / preventative (anthracnose). The experiment is classed as cell-based. The note with it: Colletotrichum orbiculare, 72 h; 20 ppm in the applied formulation; liquid culture (PDB), growth inhibition measured photometrically 3 to 4 days after application; vs untreated control; read-out: disease control. As for the experimental part:
Mycelia fragments or conidia suspensions of a fungus prepared either freshly from liquid cultures of the fungus or from cryogenic storage, are directly mixed into nutrient broth. DMSO solutions of the test compound (max. 10 mg/ml) are diluted with 0.025% Tween20 by a factor of 50 and 10 μl of this solution is pipetted into a microtiter plate (96-well format). The nutrient broth containing the fungal spores/mycelia fragments is then added to give an end concentration of the tested compound. The test plates are incubated in the dark at 24° C. and 96% relative humidity. The inhibition of fungal growth is determined photometrically after 2 to 7 days, depending on the pathosystem, and percent antifungal activity relative to the untreated check is calculated.
Conidia of the fungus from cryogenic storage are directly mixed into nutrient broth (PDB—potato dextrose broth). After placing a (DMSO) solution of test compound into a microtiter plate (96-well format), the nutrient broth containing the fungal spores is added. The test plates are incubated at 24° C. and the inhibition of growth is measured photometrically 3 to 4 days after application.
The following compounds at 20 ppm in the applied formulation give at least 80% disease control in this test when compared to untreated control under the same conditions, which show extensive disease development.

In experiment [2] the test system is Puccinia recondita f. sp. Tritici. The experiment in a line: Fungicidal activity against Puccinia recondita f. sp. Tritici / wheat / leaf disc preventative (brown rust). It is filed as in vivo. The note with it: foliar, 200 ppm in the applied formulation, wheat leaf segments cv. Kanzler, inoculated 1 day after application, vs untreated control, read-out: disease control. As for the experimental part: Leaf disks or leaf segments of various plant species are cut from plants grown in a greenhouse. The cut leaf disks or segments are placed in multiwell plates (24-well format) onto water agar. The leaf disks are sprayed with a test solution before (preventative) or after (curative) inoculation. Compounds to be tested are prepared as DMSO solutions (max. 10 mg/ml) which are diluted to the appropriate concentration with 0.025% Tween20 just before spraying. The inoculated leaf disks or segments are incubated under defined conditions (temperature, relative humidity, light, etc.) according to the respective test system. A single evaluation of disease level is carried out 3 to 14 days after inoculation, depending on the pathosystem. Percent disease control relative to the untreated check leaf disks or segments is then calculated. Wheat leaf segments cv. Kanzler were placed on agar in multiwell plates (24-well format) and sprayed with the formulated test compound diluted in water. The leaf disks were inoculated with a spore suspension of the fungus 1 day after application. The inoculated leaf segments were incubated at 19° C. and 75% relative humidity (rh) under a light regime of 12 hours light/12 hours darkness in a climate cabinet and the activity of a compound was assessed as percent disease control compared to untreated when an appropriate level of disease damage appears in untreated check leaf segments (7 to 9 days after application). The following compounds at 200 ppm in the applied formulation give at least 80% disease control in this test when compared to untreated control leaf disks under the same conditions, which show extensive disease development.

With `CC(C=NOCc1ccccc1Cl)NC(=O)c1ccc(-c2noc(C(F)(F)F)n2)cc1` (stereo not drawn) [Compound 1.22, N-[2-[(2-chlorophenyl)methoxyimino]-1-methyl-ethyl]-4-[5-(trifluoromethyl)-1,2,4-oxadiazol-3-yl]benzamide], in the experiment on Phakopsora pachyrhizi, the pest or weed control at 200 ppm was at least 80%. The inhibition of growth at 20 ppm in experiment [1] was at least 80%.
Consider `COc1ccccc1CON=CC(C)NC(=O)c1ccc(-c2noc(C(F)(F)F)n2)cc1` (stereo not drawn) [Compound 1.23, N-[2-[(2-methoxyphenyl)methoxyimino]-1-methyl-ethyl]-4-[5-(trifluoromethyl)-1,2,4-oxadiazol-3-yl]benzamide], for which the pest or weed control at 200 ppm in the experiment on Phakopsora pachyrhizi was at least 80%.
For the compound `CC(C=NOCc1ccccc1F)NC(=O)c1ccc(-c2noc(C(F)(F)F)n2)cc1` (stereo not drawn) [Compound 1.24, N-[2-[(2-fluorophenyl)methoxyimino]-1-methyl-ethyl]-4-[5-(trifluoromethyl)-1,2,4-oxadiazol-3-yl]benzamide], in the experiment on Phakopsora pachyrhizi, the pest or weed control at 200 ppm was at least 80%. In addition, the inhibition of growth at 20 ppm in experiment [1] was at least 80%.
In the case of `CCCON=CC(C)NC(=O)c1ccc(-c2noc(C(F)(F)F)n2)cc1` (stereo not drawn) [Compound 1.27, N-(1-methyl-2-propoxyimino-ethyl)-4-[5-(trifluoromethyl)-1,2,4-oxadiazol-3-yl]benzamide], the pest or weed control at 200 ppm in the experiment on Phakopsora pachyrhizi was at least 80%. The inhibition of growth at 20 ppm in experiment [1] is at least 80%.
As for `CC(C=NOCC=C(Cl)Cl)NC(=O)c1ccc(-c2noc(C(F)(F)F)n2)cc1` (stereo not drawn) [Compound 1.34, N-[2-(3,3-dichloroallyl-oxyimino)-1-methyl-ethyl]-4-[5-(trifluoromethyl)-1,2,4-oxadiazol-3-yl]benzamide], the pest or weed control at 200 ppm in the experiment on Phakopsora pachyrhizi is at least 80%. In experiment [1], the inhibition of growth at 20 ppm is at least 80%.
Consider `CC(C=NOCc1ccccc1)NC(=O)c1ccc(-c2noc(C(F)(F)F)n2)cc1` (stereo not drawn) [Compound 1.47, N-(2-benzyloxyimino-1-methyl-ethyl)-4-[5-(trifluoromethyl)-1,2,4-oxadiazol-3-yl]benzamide], for which the pest or weed control at 200 ppm in the experiment with Phakopsora pachyrhizi is at least 80%. Further, the inhibition of growth at 20 ppm in experiment [1] is at least 80%.
Take `CC(C=NOCC(F)(F)F)NC(=O)c1ccc(-c2noc(C(F)(F)F)n2)cc1` (stereo not drawn) [Compound 1.51, N-[1-methyl-2-(2,2,2-trifluoroethoxy-imino)ethyl]-4-[5-(trifluoromethyl)-1,2,4-oxadiazol-3-yl]benzamide]: the pest or weed control at 200 ppm in the experiment with Phakopsora pachyrhizi is at least 80%. In experiment [1], the inhibition of growth at 20 ppm is at least 80%.
Consider `CC(C=NOCc1ccc(F)cc1)NC(=O)c1ccc(-c2noc(C(F)(F)F)n2)cc1` (stereo not drawn) [Compound 1.52, N-[2-[(4-fluorophenyl)methoxyimino]-1-methyl-ethyl]-4-[5-(trifluoromethyl)-1,2,4-oxadiazol-3-yl]benzamide], for which the pest or weed control at 200 ppm in the experiment with Phakopsora pachyrhizi was at least 80%. For the same compound, the inhibition of growth at 20 ppm in experiment [1] is at least 80%.
For `CC(C=NOCC1CC1)NC(=O)c1ccc(-c2noc(C(F)(F)F)n2)cc1` (stereo not drawn) [Compound 1.57, N-[2-(cyclopropyl-methoxyimino)-1-methyl-ethyl]-4-[5-(trifluoromethyl)-1,2,4-oxadiazol-3-yl]benzamide], the pest or weed control at 200 ppm with Phakopsora pachyrhizi was at least 80%. Also, the inhibition of growth at 20 ppm in experiment [1] is at least 80%.
`CC(C=NOCc1ccc(Cl)cc1)NC(=O)c1ccc(-c2noc(C(F)(F)F)n2)cc1` (stereo not drawn) [Compound 1.59, N-[2-[(4-chlorophenyl)methoxyimino]-1-methyl-ethyl]-4-[5-(trifluoromethyl)-1,2,4-oxadiazol-3-yl]benzamide]: the pest or weed control at 200 ppm with Phakopsora pachyrhizi is at least 80%.
With `Cc1ccc(CON=CCNC(=O)c2ccc(-c3noc(C(F)(F)F)n3)cc2)cc1` [Compound 1.63, N-[2-(p-tolylmethoxy-imino)ethyl]-4-[5-(trifluoromethyl)-1,2,4-oxadiazol-3-yl]benzamide], the pest or weed control at 200 ppm in the experiment on Phakopsora pachyrhizi was at least 80%.
Still for that read-out and setting: as for `CCCCCCCCCCCCON=CCNC(=O)c1ccc(-c2noc(C(F)(F)F)n2)cc1` [Compound 1.73, N-(2-dodecoxyimino-ethyl)-4-[5-(trifluoromethyl)-1,2,4-oxadiazol-3-yl]benzamide], the figure is at least 80%; as for `O=C(NCC=NOCc1c(Cl)cccc1Cl)c1ccc(-c2noc(C(F)(F)F)n2)cc1` [Compound 1.84, N-[2-[(2,6-dichlorophenyl)methoxyimino]ethyl]-4-[5-(trifluoromethyl)-1,2,4-oxadiazol-3-yl]benzamide], at least 80%.
On to `CCCCON=CCNC(=O)c1ccc(-c2noc(C(F)(F)F)n2)cc1` [Compound 1.85, N-(2-butoxyiminoethyl)-4-[5-(trifluoromethyl)-1,2,4-oxadiazol-3-yl]benzamide], for which the pest or weed control at 200 ppm with Phakopsora pachyrhizi is at least 80%. The inhibition of growth at 20 ppm in experiment [1] is at least 80%.
`O=C(NCC=NOCc1ccc(F)cc1)c1ccc(-c2noc(C(F)(F)F)n2)cc1` [Compound 1.96, N-[2-[(4-fluorophenyl)methoxyimino]ethyl]-4-[5-(trifluoromethyl)-1,2,4-oxadiazol-3-yl]benzamide]: the inhibition of growth at 20 ppm in experiment [1] is at least 80%.
Take `O=C(NCC=NOCc1cccc(Cl)c1)c1ccc(-c2noc(C(F)(F)F)n2)cc1` [Compound 1.97, N-[2-[(3-chlorophenyl)methoxyimino]ethyl]-4-[5-(trifluoromethyl)-1,2,4-oxadiazol-3-yl]benzamide]: the pest or weed control at 200 ppm in experiment [2] is at least 80%.
Same read-out and setting: then `O=C(NCC=NOCc1ccc(Cl)cc1)c1ccc(-c2noc(C(F)(F)F)n2)cc1` [Compound 1.103, N-[2-[(4-chlorophenyl)methoxyimino]ethyl]-4-[5-(trifluoromethyl)-1,2,4-oxadiazol-3-yl]benzamide], with at least 80%.
For the compound `COc1ccc(CON=C(C)CNC(=O)c2ccc(-c3noc(C(F)(F)F)n3)cc2)cc1` [Compound 1.108, N-[2-[(4-methoxyphenyl)methoxyimino]propyl]-4-[5-(trifluoromethyl)-1,2,4-oxadiazol-3-yl]benzamide], the inhibition of growth at 20 ppm in experiment [1] is at least 80%.
The same measure, in the same setting: then `COc1ccccc1CON=C(C)CNC(=O)c1ccc(-c2noc(C(F)(F)F)n2)cc1` [Compound 1.112, N-[2-[(2-methoxyphenyl)methoxyimino]propyl]-4-[5-(trifluoromethyl)-1,2,4-oxadiazol-3-yl]benzamide], with at least 80%.
With `CCCCON=C(C)CNC(=O)c1ccc(-c2noc(C(F)(F)F)n2)cc1` [Compound 1.128, N-(2-butoxyiminopropyl)-4-[5-(trifluoromethyl)-1,2,4-oxadiazol-3-yl]benzamide], the pest or weed control at 200 ppm in the experiment with Phakopsora pachyrhizi is at least 80%. Further, the inhibition of growth at 20 ppm in experiment [1] is at least 80%.
For `CC(CNC(=O)c1ccc(-c2noc(C(F)(F)F)n2)cc1)=NOCc1ccccc1` [Compound 1.134, N-(2-benzyloxyimino-propyl)-4-[5-(trifluoromethyl)-1,2,4-oxadiazol-3-yl]benzamide], in the experiment with Phakopsora pachyrhizi, the pest or weed control at 200 ppm is at least 80%. Besides, the inhibition of growth at 20 ppm in experiment [1] was at least 80%.
As to `CC(CNC(=O)c1ccc(-c2noc(C(F)(F)F)n2)cc1)=NOCc1ccc(F)cc1` [Compound 1.140, N-[2-[(4-fluorophenyl)methoxyimino]propyl]-4-[5-(trifluoromethyl)-1,2,4-oxadiazol-3-yl]benzamide], the inhibition of growth at 20 ppm in experiment [1] was at least 80%.
